{"source": "patent US20260272936A1", "about": "“TREATMENT OF CANCER WITH A PARG INHIBITOR” (858 Therapeutics, Inc., priority 2023, published 2026)", "test_in_all_cases": "MMS-induced nuclear PAR accumulation, immunofluorescence imaging", "format_in_all_cases": "cell-based", "key": {"OVCAR-3 cells": {"system": "OVCAR-3 cells", "settings": "Homo sapiens; OVCAR-3, 50 μg/mL MMS, n=3; read-out: Geometric Mean EC50, PAR accumulation", "procedure": "(§1) The HeLa (Cat #CCL-2) and OVCAR-3 (Cat #HTB-161) human cancer cell lines were obtained from ATCC (Manassas, Virginia, USA) and the RMUG-S(Cat #IFO50320) and Kuramochi (Cat #JCRB0098) cell lines were obtained from the National Institutes of Biomedical Innovation, Health and Nutrition's Japanese Collection of Research Bioresources (Ibaraki City, Osaka, Japan).\n(§2) All cell lines were grown in an incubator at 37° C. in 5% CO2. HeLa cells were cultured in Dulbecco's Modified Medium (DMEM)+glutaMAX™ (Thermo Fisher Scientific, Waltham, MA, USA Cat #10566-016) containing 1% penicillin/streptomycin (pen/strep) (Thermo Fisher Scientific Cat #15070-063), and 10% fetal bovine serum (FBS) (Thermo Fisher Scientific Cat #A31605-02). Kuramochi cells were cultured in RPMI medium+glutaMAX™ (Thermo Fisher Scientific Cat #72400-047), 10% FBS, and 1% pen/strep. RMUG-S cells were cultured in Ham's F12 medium+glutaMAX™ (Thermo Fisher Scientific Cat #31765-035) containing 10% FBS, and 1% pen/strep. OVCAR-3 cells were cultured in RPMI medium+glutaMAX™ containing 20% FBS, 1% pen/strep, and 0.01 mg/mL bovine insulin (MilliporeSigma, Burlington, MA, USA Cat #10516-5ML).\n(§3) Compound 1 EC50 values for accumulation of PAR chains were determined using an immunofluorescence high-content imaging assay of PAR staining. Cells were harvested with trypsin (Thermo Fisher Scientific, Cat #25200-056) and plated in black-walled, clear bottom 96-well Corning Costar 3603 plates (VWR, Radnor, PA, USA Cat #29444-008) at 15,000 cells/well in 100 μL normal growth media. The cells were incubated overnight at 37° C., 5% CO2. The following day, a 1000× Compound 1 concentration curve was prepared by serial dilution of Compound 1 in 100% DMSO for twelve concentrations with the highest starting final concentration of 10 μM. The 1000× test compound curve was diluted 1:200 into growth media to prepare a 5× concentration curve in 0.5% DMSO/media before addition of 25 μL of compound or 0.5% DMSO/media alone to each well of the plate. The plate was mixed gently on a plate shaker and then preincubated at 37° C., 5% CO2 for 1 hour. A 2.25× stock of MMS (Sigma Cat #129925-5G) plus Compound 1 in media was prepared by diluting a 100 mg/mL stock of MMS prepared in 100% DMSO into growth media containing 1× Compound 1 compound. […] Nuclear PAR accumulation was evaluated by imaging the plates on an ImageXpress Pico automated cell imaging system (Molecular Devices, San Jose, CA, USA).\n(§4) Four fields for each well were acquired at 20× magnification resulting in at least 1,000 cells analyzed per well. Percent PAR positive cells were calculated using CellReporterXpress software (Molecular Devices, San Jose, CA, USA) using nuclei detection by DAPI image segmentation then setting a fluorescence intensity threshold for PAR. […]"}, "Kuramochi cells": {"system": "Kuramochi cells", "settings": "Homo sapiens, 50 μg/mL MMS, n=3, read-out: Geometric Mean EC50, PAR accumulation", "procedure": "as §1, §2, §3, §4"}, "RMUG-S cells": {"system": "RMUG-S cells", "settings": "Homo sapiens, 50 μg/mL MMS, n=3, read-out: Geometric Mean EC50, PAR accumulation", "procedure": "as §1, §2, §3, §4"}, "HeLa cells": {"system": "HeLa cells", "settings": "Homo sapiens, 50 μg/mL MMS, n=26, read-out: Geometric Mean EC50, PAR accumulation", "procedure": "as §1, §2, §3, §4"}}}
{"smiles": "[2H]C([2H])(c1cnn(C)c1)N1C(=O)c2cc(S(=O)(=O)NC3(C)CC3)ccc2N2C1=NC[C@H]2C", "note": "[Compound 1, (R)-1-methyl-4-((1-methyl-1H-pyrazol-4-yl)methyl-d2)-N-(1-methylcyclopropyl)-5-oxo-1,2,4,5-tetrahydroimidazo[1,2-a]quinazoline-7-sulfonamide]", "values": [{"measurement": "EC50", "setting": "OVCAR-3 cells", "result": 20, "unit": "nM"}, {"measurement": "EC50", "setting": "Kuramochi cells", "result": 9, "unit": "nM"}, {"measurement": "EC50", "setting": "RMUG-S cells", "result": 38, "unit": "nM"}, {"measurement": "EC50", "setting": "HeLa cells", "result": 14, "unit": "nM"}]}
